# Laboratory results as given in patent US20090220562A1, “Osteogenic and anti-adipogenic oxysterols” (priority 2005, published 2009).
# Columns and labels:
# Type in all cases: cell-based, mouse
# [1] = system: M2-10B4 marrow stromal cells; assay: Alkaline phosphatase (ALP) activity assay on whole cell extracts of M2-10B4 marrow stromal cells; conditions: for induction of alkaline phosphatase activity: 10 μM oxysterol, 3 days, osteogenic medium
# Protocol: Cells: M2-10B4 mouse marrow stromal cell line obtained from American Type Culture Collection (ATCC, Rockville, Md., U.S.A.) was derived from bone marrow stromal cells of a (C57BL/6J x C3H/HeJ) Fl mouse, and support human and murine myelopoiesis in long-term cultures (as per ATCC) and have the ability to differentiate into osteoblastic and adipocytic cells. Unless specified, these cells were cultured in RPMI 1640 containing 10% heat-inactivated FBS, and supplemented with 1 mM sodium pyruvate, 100 U/ml penicillin, and 100 U/ml streptomycin (all from Irvine Scientific).
# Cells were always treated at 90% confluence. […]
# Next, a combination of 22R and 20S oxysterols (RS, 2.5 μM each) were added in the presence or absence of SC as indicated. After 3 days, ALP activity was measured as described earlier. […] (B) M2 cells were treated as described in (A) and after 10 days matrix mineralization in cultures was quantified by a ^45Ca incorporation assay as described earlier. […] (C) M2 cells were pretreated with 20 μM SC for 4 hours, followed by the addition of RS in the presence or absence of SC as described above. After 8 days, total RNA was isolated and analyzed for osteocalcin (Osc) and […] expression by Northern blotting as previously described. Data from densitometric analysis of the Northern blot is shown in (D) as the average of duplicate samples, normalized to 18S rRNA. (E) M2 cells at confluence were pretreated for 2 hours with control vehicle (C), or PLA2 inhibitors ACA (25 μM) and AACOCF3 (AAC, 20 μM), in osteogenic medium. Next, a combination of 22R and 20S oxysterols (RS, 2.5 μM) was added in the presence or absence of the inhibitors as indicated. After 3 days, ALP activity was measured as previously described. […] (F) M2 cells were treated as described in (E). After 10 days, matrix mineralization in cultures was quantified using a ^45Ca incorporation assay as previously described. […]
# [2] = system: osteocalcin mRNA; assay: Northern blotting for osteocalcin mRNA in M2-10B4 cells; conditions: for induction of osteocalcin gene expression by individual oxysterols: 0.5 to less than 10 μM, as many as 14 days (data not shown)
# Protocol: RNA isolation and Northern blot analysis—Following treatment of cells under appropriate experimental conditions, total RNA was isolated using the RNA isolation kit from Stratagene (La Jolla, Calif., U.S.A.). Total RNA ([…]) was run on a 1% agarose/formaldehyde gel and transferred to Duralon-UV membranes (Strategene, CA, U.S.A.) and cross-linked with UV light. The membranes were hybridized overnight at 60 degree C. with ^32P-labeled mouse osteocalcin cDNA probe, mouse lipoprotein lipase (LPL), mouse adipocyte protein 2 (aP^2) PCR-generated probes, human 28S or 18S rRNA probes obtained from Geneka Biotechnology (Montreal, Quebec, Canada) and Maxim Biotech (San Francisco, Calif., U.S.A.), respectively. The PCR products were generated using primer sets synthesized by Invitrogen (Carlsbad, Calif., U.S.A.) with the following specifications: mouse aP2 gene (accession no. M13261); sense (75-95) 5′-[…]-3′, antisense (362-383) 5′-[…]-3′, generating a PCR product of 309 base pairs. Mouse LPL (accession no. XM—134193); sense (1038-1058) 5′-[…]-3′, antisense (1816-1836) 5′-[…]-3′, generating a PCR product of 799 base pairs. The PCR products were gel-purified and sequenced by the UCLA sequencing core, showing the highest similarity to their respective GenBank entries. Following hybridization, the blots were washed twice at room temperature with 2×SSC+0.1% SDS, and then twice at 60 degree C. with 0.5×SSC+0.1% SDS, and exposed to X-ray film. The extent of gene induction was determined by densitometry.
# After 4 and 8 days, total RNA from duplicate samples was isolated and analyzed for osteocalcin (Osc) and 28S rRNA expression by Northern blotting as described. FIG. 3E is a radiogram of Northern blotting for osteocalcin mRNA in M2 cells exposed to a control or combination of oxysterols for 4 or 8 days. FIG. 3F is a bar graph depicting the relative demsometric units of osteocalcin mRNA in M2 cells exposed to a control or combination of oxysterols for 4 -or 8 days. Data from densitometric analysis of the Northern blot is shown in (F) as the average of duplicate samples, normalized to 28S rRNA.
# Next, a combination of 22R and 20S oxysterols (RS, 2.5 μM each) were added in the presence or absence of SC as indicated. After 3 days, ALP activity was measured as described earlier. […] (B) M2 cells were treated as described in (A) and after 10 days matrix mineralization in cultures was quantified by a ^45Ca incorporation assay as described earlier. […] (C) M2 cells were pretreated with 20 μM SC for 4 hours, followed by the addition of RS in the presence or absence of SC as described above. After 8 days, total RNA was isolated and analyzed for osteocalcin (Osc) and […] expression by Northern blotting as previously described. Data from densitometric analysis of the Northern blot is shown in (D) as the average of duplicate samples, normalized to 18S rRNA. (E) M2 cells at confluence were pretreated for 2 hours with control vehicle (C), or PLA2 inhibitors ACA (25 μM) and AACOCF3 (AAC, 20 μM), in osteogenic medium. Next, a combination of 22R and 20S oxysterols (RS, 2.5 μM) was added in the presence or absence of the inhibitors as indicated. After 3 days, ALP activity was measured as previously described. […] (F) M2 cells were treated as described in (E). After 10 days, matrix mineralization in cultures was quantified using a ^45Ca incorporation assay as previously described. Results from a representative of three experiments are shown, reported as the mean of quadruplicate determinations ±SD, normalized to protein concentration (p<0.01 for RS vs. RS+ACA and RS+AAC).
# ALP activity was measured after 2 days, as described. […] (B) M2 cells were treated as described in (A). After 10 days, matrix mineralization in cultures was quantified using a ^45Ca incorporation assay as described. […] (C) M2 cells were treated under similar conditions as those described above. […]
# [3] = system: marrow stromal cells; assay: Osteogenic differentiation of marrow stromal cells (marker not specified: ALP activity, osteocalcin mRNA, mineral formation); conditions: pretreatment and co-treatment; 20S 5-15 μM
# Protocol: The purpose of the study was to identify other osteogenic and anti-adipogenic oxysterols based on the chemical structure of previously identified oxysterols. The ability of such candidate oxysterol molecules to induce the formation of osteoblastic cells in cultures of marrow stromal cells (which are progenitors of osteoblastic cells that make bone) were tested. In order to assess osteogenic differentiation of cells, one or more markers of osteogenic differentiation were measured in untreated cells and cells treated with the test oxysterols. These markers included: alkaline phosphatase activity, osteocalcin mRNA expression and mineral formation in cultures of marrow stromal cells. Activation of either one or more than one marker by a single or combination oxysterols is indicative of their osteogenic property.
Structure (SMILES),induction of alkaline phosphatase activity [1],induction of osteocalcin gene expression by individual oxysterols [2],"enhancement of 20S-hydroxycholesterol's induction of ALP activity, Runx2 DNA binding and protein expression, osteocalcin mRNA expression and mineralization [3]",alkaline phosphatase (ALP) activity ([1]; doses of 5-15 μM),osteocalcin mRNA expression ([2]; doses of 5-15 μM)
CC(C)CC[C@@H](O)[C@@H](C)[C@H]1CC[C@H]2[C@@H]3CC=C4C[C@@H](O)CC[C@]4(C)[C@H]3CC[C@]12C [22R-hydroxycholesterol],induced,unable to induce,greatly enhanced,–,–
CC(C)CCC[C@](C)(O)[C@H]1CC[C@H]2[C@@H]3CC=C4C[C@@H](O)CC[C@]4(C)[C@H]3CC[C@@]21C [20S-hydroxycholesterol],induced,unable to induce,–,induction,induction
CC(C)CC[C@H](O)[C@@H](C)[C@H]1CC[C@H]2[C@@H]3CC=C4C[C@@H](O)CC[C@]4(C)[C@H]3CC[C@]12C [22S-hydroxycholesterol],induced,unable to induce,greatly enhanced,–,–
